Experiments:
[1] = test system: etiolated eto1-4 seedlings; experiment: Triple response phenotype / hypocotyl length of etiolated eto1-4 seedlings; type: in vivo, Arabidopsis thaliana; details: 10 μM; etiolated eto1-4; FIG. 3
Experimental: All mutants and transgenic plants were derived from the wild-type Arabidopsis thaliana Columbia ecotype (Col-0) and cultivated under a long-day condition (16-h light/8-h dark at 22° C.) under exemplary e light (100-150 μE m^−2 s^−1). A reporter construct, 5×EBS::LUC (a generous gift from Drs. Hai Li and Anna N. Stepanova, Salk Institute, USA), containing 5 copies of EIN3 binding sequence (EBS) fused with luciferase gene (LUC) was transformed to eto1-4 and subsequently used for screening compounds of a chemical library. Ethylene mutants eto1-4, eto2-1, ctr1-1 and the EIN3 overexpression line (35S::EIN3) were described previously (Solano, et al. (1998) Genes Dev 12, 3703-3714). Seeds were sterilized with 30% bleach for 6 min and sown in half-strength Murashige and Skoog (0.5×MS) medium supplemented with 0.8% agar and stratified in the dark at 4° C. for 3-4 days before germination. For analysis of the triple response phenotype, stratified seeds were grown in the dark at 22° C. for 3 days before scoring the phenotype.
A DIVERSet library (ChemBridge Inc.) containing 10,000 small molecules (in DMSO) was used for chemical screening. Three rounds of chemical screenings were carried out in 0.5×MS agar medium containing individual chemicals in each well of 96- and 24-well micro-titer plates. The initial screening was performed by sowing 10 to 15 seeds in the wells of micro-titer plates containing small molecules at 50 μM to score the long-hypocotyl phenotype. For the second and third screenings, we used 25 μM of small molecules selected from the first round of screening to score and confirm the phenotype. The seedling phenotype was scored by use of a digital camera attached to a Zeiss stereomicroscope (SteREO V8), and quantitation of hypocotyl length was performed by use of NIH Image J software. AVG and silver thiosulfate (STS, by mixing silver nitrate and sodium thiosulfate at a 1:4 molar ratio immediately before use) were obtained from Sigma and used as controls to suppress ethylene biosynthesis and perception, respectively. Agar medium was supplemented with 1-aminocyclopropane-1-carboxylic acid (10 μM, Merck) to induce the triple response in etiolated seedlings.
Shortened hypocotyls in etiolated seedlings is one of the triple response phenotypes (Guzman, et al. (1990) Plant Cell 2, 513-523; Wang, et al. (2004) Nature 428, 945-950). Two chemical compounds negating ethylene response, AVG and STS, were included as a control for comparison.

[2] = test system: 5×EBS::LUC reporter (EIN3 binding sequence) in eto1-4; experiment: Luciferase activity of 5×EBS::LUC reporter in eto1-4 seedlings; type: in vivo, Arabidopsis thaliana; details: 10 μM
Experimental: For live imaging of luciferase activity, plants were first grown in the dark at 22° C. for 3 days, then under exemplary e light for 3 more days before the luciference of seedlings was imaged. Six-day-old seedlings were sprayed with luciferin (2 μM, Biosynth International Inc.) and kept in the dark for 5 min before collecting images by the Xenogen IVIS System (Caliper Life Sciences, Inc.). For quantitative assay of luciferase activity, the etiolated seedlings mentioned above were transferred to exemplary e micro-titer plates (Packard Optiplate-96, Perkin Elmer Inc.) for an additional 3 days under exemplary e light in 0.5×MS solution. The luciferase activity of seedlings was quantitated by use of a microplate reader (CHAMELEON, Hidex Inc.) in the presence of 2 μM luciferin.
To confirm the suppression of the eto1-4 phenotype resulting from disruption of the ethylene response, the following assays were performed. First, luciferase activity was analyzed with a transgenic reporter line harboring 5 copies of a synthetic promoter fusion with a luciferase gene (LUC), 5×EBS::LUC, in the eto1-4 background.

Molecule | ranking in both hypocotyl length and ethylene level assays [1] | luciferase activity of 5×EBS::LUC in eto1-4 [2]
CC1CC(=O)c2cnc(Nc3ccccc3)nc2C1 (centres unmarked) [Compound 2305] | most effective | –
CCCCNc1ncc2c(n1)CC(c1ccccc1)CC2=O (centres unmarked) [Compound 2616] | most effective | –
O=C1CC(c2ccccc2Cl)Cc2nc(NC3CCCC3)ncc21 (centres unmarked) [Compound 8107] | most effective | –
CC1(C)CC(=O)c2cnc(Nc3ccccc3)nc2C1 [Compound 9028] | most effective | –
silver thiosulfate [STS] | – | suppressed

From patent US8481459B2, “Chemical inhibitors of ethylene biosynthesis” (Academia Sinica, priority 2010, dated 2013)
